From patent publication US20190054038A1, “NITRIC OXIDE GENERATING FORMULATIONS AND KITS” (THE REGENTS OF THE UNIVERSITY OF MICHIGAN, priority 2016, published 2019) come the findings set out here.

Series [1] can be described thus: NO release kinetics of solutions by chemiluminescence (nitric oxide analyzer). The format is physicochemical. The protocol:
The NO release profile of the two solutions was measured via chemiluminescence detection at 37° C., and the results are shown in FIG. 3. As depicted, both solutions continuously generated NO for more than 7 hours, and the solution containing the higher concentration of GSNO generated higher levels of NO.
As depicted, the inclusion of ascorbate provided an enhanced NO release profile, with all of the NO release within a 2-3 hour window.
The NO release rate of some of the solution formulations was measured by chemiluminescent nitric oxide analyzer (NOA) at room temperature and at 37° C. in an amber NOA cell, while purging with 50 mL/min nitrogen through a glass pipette. The solution formulations were freshly prepared (initial data) (i.e., the dry powder nasal formulation was dissolved in 10 mL of saline solution (NaCl and NaHCO3 in water) immediately before measurements), or were prepared from stored dry power aliquots that were freshly dissolved in 10 mL of saline solution (NaCl and NaHCO3 in water) immediately before measurements. The NO release rate was tested for one or more of the following time periods: 0 (freshly prepared), 1 month, 2 months, 4 months, and 6 months.
The NOA was a Sievers NOA. Studying the release kinetics included analyzing the overall shape of the transient curve, half-life, and total NO released compared to theoretical GSNO content (%). Primarily, the shape of the graph was considered most qualitative, as different machines yield different PPB/mL values due to differing constants. If necessary, the GSNO quantification in each formulation was tested by a copper/cysteine method to release all of the NO from the GSNO very rapidly.

In series [2] the test system is S. aureus biofilm on CF airway epithelial cells. Briefly: Killing of S. aureus biofilm on CF airway epithelial cell cultures (bacterial density by plating lysates). Conditions: 1.25 mM, 4 hours. It is filed as cell-based.
Method: Progenitor (basal) airway epithelial cells isolated from cystic fibrosis patients were cultured at air/liquid interface to promote mucociliary differentiation resembling airway epithelium in vivo. These cultures will be referred to herein as CF airway epithleial cells.
Apical surface of the CF airway epithelial cells was washed with PBS, infected apically with 10 μl of S. aureus (1×10^5 CFU/well or at 0.01 multiplication of infection), and incubated for 24 hours. […] The basolateral medium was changed, the apical surface was washed with saline once, and then 30 μl of PBS containing various concentrations of GSNO/Asc (i.e., 0 mM, 0.3 mM, 0.625 mM, 1.25 mM, 2.5 mM, and 5 mM) was added to the apical surface and incubated for 4 hours. The apical surface was washed once with 0.2 ml of 0.15% bicarbonate in PBS. […] Cells were lysed in 1% Triton X-100 and serial dilutions of cell lysates were plated to determine the bacterial density (FIG. 17A).
Apical surface of CF airway epithelial cells was washed with PBS, infected apically with 10 μl of S. aureus (2×10^6 CFU/well), and incubated for 24 hours. The basolateral medium was changed, the apical surface was washed with saline once and treated apically with 30 μl of PBS, or saline containing 1.25 mM GSNO/Asc, or saline containing 50 μg of gentamicin, or saline containing a mixture of 1.25 mM GSNO/Asc and 50 μg of gentamicin. […]
A short description of series [3]: Stability of dry powder formulations by UV/Vis (GSNO absorbance at 334 nm). It is filed as physicochemical. The protocol: Some of the formulations also included ethylenediamintetraacetic acid (EDTA) and/or saline salts (NaCl and NaHCO3). The constituents were mixed as dry powders and were stored in 4 mL amber vials either in the freezer (−18° C.), at 4° C., at room temperature (RT, from about 20° C. to about 25° C.), or at 37° C. The stability of some of the dry powder formulations was tested via UV/Vis analysis and/or via the Sievers nitric oxide (NO) analyzer (as previously described). For the UV/Vis analysis, at each time interval (0 (freshly prepared), 1 month, 2 months, 4 months, and 6 months), three samples (3-5 mg each) from the dry powder formulations (at each temperature, resulting in 12 vials per formulation) were put into 4 mL amber vials. The respective formulations were then diluted in 4 mL PBS+0.1 mM EDTA (PB SE) solution and mixed for 30 seconds, and 1 mL of the diluted formulation was injected into 3 mL PBSE in a disposable UV/VIS cuvette. The absorbance spectrum was measured typically between 300-600 nm after measuring the PBSE spectrum as blank. GSNO was quantified by absorbance measured at 334 nm. These values were then compared to a calculated value of the percentage of initial or theoretical GSNO content of each formulation.

Each structure is given as a SMILES string.

On to `O=C(O)CN(CCN(CC(=O)O)CC(=O)O)CC(=O)O` [EDTA, ethylenediaminetetraacetic acid], for which the “EDTA stability in stored dry powder formulation” value in series [1] (NO release patterns, fresh vs stored several months) was “stable”.
On to `N[C@@H](CCC(=O)N[C@@H](CS)C(=O)NCC(=O)O)C(=O)O` [GSH, reduced L-glutathione], for which the “change in bacterial density” value in series [2] was “no significant changes in bacterial density”.
Regarding `N[C@@H](CCC(=O)N[C@@H](CSN=O)C(=O)NCC(=O)O)C(=O)O` [GSNO, S-nitrosoglutathione], the “% of initial GSNO remaining” value in series [3] (dry powder stored at 37° C., after 6 months) is 67%. Also, the “stability of dry powder over six months (UV/VIS)” value in series [3] (stored at −18° C., 4° C., room temperature, 37° C.) is on record as “no significant decrease in the stability”. Further, the “time of continuous NO generation” value in series [1] (10 μM and 25 μM GSNO in phosphate buffered saline pH 7.4, 37° C., no additive) was “more than 7 hours”. Moreover, the “amount of NO release versus GSNO concentration” value in series [1] (GSNO 1-100 μM in saline) is on record as “directly related to the GSNO concentration”. For the same compound, the “time of peak NO release” value in series [1] (GSNO 1-100 μM in saline, without any additive) lay within 5 to 6 h.
Take `O=C1O[C@H]([C@@H](O)CO)C(O)=C1O` [ascorbic acid, L-ascorbic acid, reference compound]: the “change in bacterial density” value in series [2] is recorded as “no significant changes in bacterial density”. Further, in series [3] (UV/Vis of GSNO mixed with ascorbic acid, fresh vs stored several months), the “ascorbic acid stability in stored dry powder formulation” value is “relatively stable”.
